According to publication PMC10525924, “Engineering and Purification of Microcin C7 Variants Resistant to Trypsin and Analysis of Their Biological Activity” (Antibiotics, 2023):
In brackets after ≈: the same amount, converted by molar mass. Where a SMILES comes first, the peptide text is derived from it. Where no end group is shown, it is not given here.

Assays:
[1] = HPLC retention time according to hydrophobicity; type: physicochemical; conditions: chromatographic, C18 5 μm 9.4 × 250 mm; A 0.1% trichloroacetic acid, B 0.1% trichloroacetic acid with 90% acetonitrile; linear 5% B to 50% B; 1 mL/min; 35 °C; 280 nm; varies according to hydrophobicity
Protocol: To find the separation peaks of the variants, wildtype McC and blank control fermentation broth samples were tested by HPLC. The separation peaks with obvious differences (those with retention times of 11 min and 17 min) were purified and the antimicrobial activity was determined. […] Therefore, the molecular weight was further analyzed by mass spectrometry, and the separation peak at approximately 17 min was confirmed to be that of the desired purified McC. Since the mutations in this study involved only one amino acid and had few effects on the properties of the peptides, we predicted that the separation peaks of the variants should fluctuate around approximately 17 min according to their hydrophobicity. […] The purity of the purified variants was determined by HPLC to be greater than 80% (Table 3).
The lyophilized supernatants were dissolved in deionized water, filtered through 0.22 μm aqueous-phase filter membranes, and purified by high-performance liquid chromatography (HPLC, Agilent Technologies Inc., Palo Alto, CA, USA) with C18 column (5 μm 9.4 × 250 mm, Agilent Technologies Inc., Palo Alto, CA, USA). The mobile phase was composed of 0.1% (v/v) trichloroacetic acid (solvent A) and 0.1% (v/v) trichloroacetic acid with 90% (v/v) acetonitrile (solvent B). A linear gradient from 95% A/5% B to 50% A/50% B was used with a flow rate of 1 mL/min, a sample volume of 10 μL, a column temperature of 35 °C, and a detection wavelength of 280 nm. Electrospray ionization mass spectrometry (ESI-MS) was used to compare the McC variant masses with the expected masses. The relationships between the relative abundances and the mass-to-charge ratios (m/z) of the ions were determined to confirm the identities of the experimentally produced McC variants.

[2] = Remaining amount by RP-HPLC after chymotrypsin treatment; type: in vitro ADME; conditions: isolated enzyme chymotrypsin; chymotrypsin treated for 3 h; read-out RP-HPLC; Table S2
Protocol: (§3) To test whether the variants were tolerant to trypsin or other digestive enzymes, the amount of the remaining McC and its analogues remaining was determined by RP-HPLC after trypsin, pepsin, and chymotrypsin treated for 3 h (Table S2), and the inhibition zones of trypsin-treated variants were tested using the same method (Table 2).

[3] = Remaining amount by RP-HPLC after pepsin treatment; type: in vitro ADME; conditions: isolated enzyme pepsin; pepsin treated for 3 h; read-out RP-HPLC; Table S2
Protocol: as §3

[4] = test system: Yej^+rimL^− strain; assay: organism not typed; type: cell-based; conditions: agar diffusion; for Diameters of the inhibition zones, Trypsin-Untreated Group, Yej^+rimL^−: 200 μL fermentation supernatant, 1 × 10^5 CFU/mL, 4 °C 1 h then 37 °C 24 h, chloramphenicol 100 μL of 0.25 μg/mL; for Diameters of the inhibition zones, Trypsin-Untreated Group, Yej^+rimL^− / Diameters of the inhibition zones, Trypsin-Treated Group, Yej^+rimL^−: dash = no zone; for bacteriostatic activity after trypsin treatment, Yej^+rimL^− / Diameters of the inhibition zones, Trypsin-Treated Group, Yej^+rimL^−: supernatant treated with trypsin 50 μg/mL, 37 °C, 3 h; for Diameters of the inhibition zones, Trypsin-Treated Group, Yej^+rimL^−: pH 6.8, 37 °C 24 h
Description: To analyze the antimicrobial ability of the variants, we measured the inhibition zones of all 21 variants by the agar diffusion method. The peptide moiety of McC was recognized by a YejABEf-peptide transporter. The rimL contains an acetyltransferase domain homologous to MccE which can detoxify and provide resistance to McC [17]. The overexpression of the YejABEF gene cluster and rimL gene knockout made the strain hypersensitive to McC. Therefore, the Yej^+rimL^− strain was selected as the sensitive indicator bacterial strain.
(§1) The pH was adjusted to 6.8.
(§2) The fermentation supernatants and pure products were used to characterize the bacteriostatic effects of McC variants by the agar diffusion and microdilution methods. Yej^+rimL^− and E. coli K88 indicator bacteria were applied. The serotype of E. coli K88 was O149:K91, K88ac, a clinically isolated strain, and provided by the College of Veterinary Medicine, China Agricultural University. The indicated bacteria were diluted to 1 × 10^5 CFU/mL and added to plate medium cooled to 50 °C. Two hundred microliters of supernatants were added to each dish, and diffusion was performed at 4 °C for 1 h. After incubation at 37 °C for 24 h, the diameters of the inhibition zones were determined. One hundred microliters of 0.25 μg/mL chloramphenicol was used as a control. The MICs of the pure McC variants were determined by microdilution in a sterilized 96-well microplate. The McC variants were serially diluted 2 times in 96-well microplates with LB medium. The concentrations of the McC variants ranged from 0.125 to 100 µg/mL. Each well was inoculated with 10 μL of overnight bacterial culture at a concentration of 1.0 × 10^5 CFU/mL and incubated at 37 °C for 24 h. A microplate reader was used to automatically observe changes in absorbance at 600 nm in order to monitor bacterial growth. A positive control group (including inoculated medium) and a negative control group (with medium only) were included. The MIC was determined as the lowest concentration of McC variant that inhibited bacterial growth (preventing an increase in the absorbance reading). All tests were performed in triplicate.

[5] = test system: E. coli K88; assay: microbe, parasite or virus in culture; type: cell-based; conditions: agar diffusion; for Diameters of the inhibition zones, Trypsin-Untreated Group, K88: 200 μL fermentation supernatant, 1 × 10^5 CFU/mL, 4 °C 1 h then 37 °C 24 h, chloramphenicol 100 μL of 0.25 μg/mL; for Diameters of the inhibition zones, Trypsin-Untreated Group, K88 / Diameters of the inhibition zones, Trypsin-Treated Group, K88: dash = no zone; for antimicrobial activity after trypsin treatment, K88 / Diameters of the inhibition zones, Trypsin-Treated Group, K88: supernatant treated with trypsin 50 μg/mL, 37 °C, 3 h; for Diameters of the inhibition zones, Trypsin-Treated Group, K88: pH 6.8, 37 °C 24 h
Protocol: as §1, §2

[6] = test system: Yej^+rimL^− strain; type: cell-based; conditions: HPLC-purified variants; microdilution in LB, 96-well; 0.125 to 100 µg/mL; 1.0 × 10^5 CFU/mL; 37 °C 24 h; absorbance 600 nm; triplicate
Protocol: To accurately characterize the bacteriostatic abilities of the variants, the MICs of the pure McC variants toward the McCsensitive strain Yej^+rimL^− were determined. The MICs of all variants were lower than that of wild-type McC. From smallest to largest MIC, the above five variants were in the following order: R2A, R2T, R2Q, R2S, and R2H. […] Although the diameter of the inhibitory zone of R2M was smaller than those of the above five variants, the bacteriostatic ability of R2M was second only to R2T/R2Q, and the MIC was 50 μg/mL.
as §2

[7] = test system: indicator bacteria; conditions: second to seventh codons of mccA replaced; cited from earlier work
Description: The heptapeptide precursor of McC, f-MRTGNAN, is encoded by the first gene in the mcc gene clusters, mccA [11]. Considering its protein nature, it is suitable for gene-based peptide engineering. Kazakov et al. first applied site-directed mutagenesis on the mccA gene, systematically replacing the second to seventh codons of mccA encoding 19 standard amino acids for a total of 114 mutations.

Row | Compound | Retention Time [1] | remaining at 3 h [2] | remaining at 3 h [3] | Diameters of the inhibition zones, Trypsin-Untreated Group, Yej^+rimL^− [4] | Diameters of the inhibition zones, Trypsin-Untreated Group, K88 [5] | MIC [6] | antimicrobial activity of mccA substitution variants [7] | bacteriostatic activity after trypsin treatment, Yej^+rimL^− [4] | Diameters of the inhibition zones, Trypsin-Treated Group, Yej^+rimL^− [4] | antimicrobial activity after trypsin treatment, K88 [5] | Diameters of the inhibition zones, Trypsin-Treated Group, K88 [5]
1 | CSCC[C@H](NC=O)C(=O)N[C@@H](CCCNC(=N)N)C(=O)N[C@H](C(=O)NCC(=O)N[C@@H](CC(N)=O)C(=O)N[C@@H](C)C(=O)N[C@@H](CC(=O)O)C(=O)NP(=O)(OCCCN)OC[C@H]1O[C@@H](n2cnc3c(N)ncnc32)[C@H](O)[C@@H]1O)[C@@H](C)O (some centres unmarked) [McC, Microcin C7] (HELM PEPTIDE1{[O=C[*:2]].M.R.T.G.N.A.[NCCCOP(=O)(NC(=O)[C@H](CC(=O)O)N[*:1])OC[C@H]1O[C@@H](n2cnc3c(N)ncnc32)[C@H](O)[C@@H]1O]}$$$$V2.0) | 17.198 min | 41.7 ± 1.07% | 89.3 ± 1.16% | 29.12 mm | 20.25 mm | 1.56 µg/mL (≈ 1.33 µM) |  |  |  |  | 
2 | CSCC[C@H](NC=O)C(=O)N[C@@H](C)C(=O)N[C@H](C(=O)NCC(=O)N[C@@H](CC(N)=O)C(=O)N[C@@H](C)C(=O)N[C@@H](CC(=O)O)C(=O)NP(=O)(OCCCN)OC[C@H]1O[C@@H](n2cnc3c(N)ncnc32)[C@H](O)[C@@H]1O)[C@@H](C)O (some centres unmarked) [R2A] (HELM PEPTIDE1{[O=C[*:2]].M.A.T.G.N.A.[NCCCOP(=O)(NC(=O)[C@H](CC(=O)O)N[*:1])OC[C@H]1O[C@@H](n2cnc3c(N)ncnc32)[C@H](O)[C@@H]1O]}$$$$V2.0) | 17.167 min | 42.2 ± 0.86% | 92.2 ± 1.04% | 21.82 mm | 16.53 mm | 12.5 µg/mL (≈ 11.4 µM) | bacteriostatic | exhibited antibacterial effects | 19.07 mm | retained their antimicrobial activity | 11.96 mm
3 | CC[C@H](C)[C@H](NC(=O)[C@H](CCSC)NC=O)C(=O)N[C@H](C(=O)NCC(=O)N[C@@H](CC(N)=O)C(=O)N[C@@H](C)C(=O)N[C@@H](CC(=O)O)C(=O)NP(=O)(OCCCN)OC[C@H]1O[C@@H](n2cnc3c(N)ncnc32)[C@H](O)[C@@H]1O)[C@@H](C)O (some centres unmarked) [R2I] (HELM PEPTIDE1{[O=C[*:2]].M.I.T.G.N.A.[NCCCOP(=O)(NC(=O)[C@H](CC(=O)O)N[*:1])OC[C@H]1O[C@@H](n2cnc3c(N)ncnc32)[C@H](O)[C@@H]1O]}$$$$V2.0) | 18.166 min | 41.3 ± 0.55% | 91.72 ± 0.87% | 18.36 mm | 10.18 mm | 100 µg/mL (≈ 88.2 µM) |  | exhibited antibacterial effects | 15.67 mm |  | 
4 | CSCC[C@H](NC=O)C(=O)N[C@@H](CCC(N)=O)C(=O)N[C@H](C(=O)NCC(=O)N[C@@H](CC(N)=O)C(=O)N[C@@H](C)C(=O)N[C@@H](CC(=O)O)C(=O)NP(=O)(OCCCN)OC[C@H]1O[C@@H](n2cnc3c(N)ncnc32)[C@H](O)[C@@H]1O)[C@@H](C)O (some centres unmarked) [R2Q] (HELM PEPTIDE1{[O=C[*:2]].M.Q.T.G.N.A.[NCCCOP(=O)(NC(=O)[C@H](CC(=O)O)N[*:1])OC[C@H]1O[C@@H](n2cnc3c(N)ncnc32)[C@H](O)[C@@H]1O]}$$$$V2.0) | 16.910 min | 49.6 ± 1.19% | 87.6 ± 1.23% | 19.45 mm | 21.67 mm | 25 µg/mL (≈ 21.8 µM) |  | exhibited antibacterial effects | 19.38 mm | retained their antimicrobial activity | 14.56 mm
5 | CSCC[C@H](NC=O)C(=O)N[C@H](C(=O)N[C@H](C(=O)NCC(=O)N[C@@H](CC(N)=O)C(=O)N[C@@H](C)C(=O)N[C@@H](CC(=O)O)C(=O)NP(=O)(OCCCN)OC[C@H]1O[C@@H](n2cnc3c(N)ncnc32)[C@H](O)[C@@H]1O)[C@@H](C)O)[C@@H](C)O (some centres unmarked) [R2T] (HELM PEPTIDE1{[O=C[*:2]].M.T.T.G.N.A.[NCCCOP(=O)(NC(=O)[C@H](CC(=O)O)N[*:1])OC[C@H]1O[C@@H](n2cnc3c(N)ncnc32)[C@H](O)[C@@H]1O]}$$$$V2.0) | 17.418 min | 46.7 ± 0.66% | 86.76 ± 0.77% | 21.74 mm | 15.27 mm | 25 µg/mL (≈ 22.3 µM) |  | exhibited antibacterial effects | 17.23 mm | retained their antimicrobial activity | 11.68 mm
6 | A6F: McC substitution variant of Kazakov et al., site-directed mutagenesis of mccA (MRTGNFN; ends and bridges not checked; UniProt Q47505 1-7, looked up, variant A6F) [reference compound] |  |  |  |  |  |  | loss of antimicrobial activity |  |  |  | 
7 | A6M: McC substitution variant of Kazakov et al., site-directed mutagenesis of mccA (MRTGNMN; ends and bridges not checked; UniProt Q47505 1-7, looked up, variant A6M) [reference compound] |  |  |  |  |  |  | loss of antimicrobial activity |  |  |  | 
